According to ChEMBL document CHEMBL1201862, “PubChem BioAssay data set” (2004):
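Briefly, cells in 96-well plates were exposed to five compound concentrations for 48 h, and endpoints were estimated by linear interpolation. The concentration for 50% growth inhibition is given as GI50.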 Activity calls are given as the source filed them. Rule as the data show it: active = GI50 up to about 1.1 µM and inactive = higher.

How the values were obtained:
Test in all cases: inhibition of tumour cell growth, NCI panel, 48 h
UACC-257 = tested on: UACC-257
HCC 2998 = tested on: HCC 2998
MOLT-4 = tested on: MOLT-4
NCI-H23 = tested on: NCI-H23
SK-MEL-2 = tested on: SK-MEL-2
K562 = tested on: K562
OVCAR-3 = tested on: OVCAR-3
SK-MEL-28 = tested on: SK-MEL-28
NCI/ADR-RES = tested on: NCI/ADR-RES
SNB-75 = tested on: SNB-75
SK-MEL-5 = tested on: SK-MEL-5
SF-295 = tested on: SF-295
HL-60 = tested on: HL-60
NCI-H460 = tested on: NCI-H460
SN12C = tested on: SN12C
SNB-19 = tested on: SNB-19
IGROV-1 = tested on: IGROV-1
SF-268 = tested on: SF-268
TK-10 = tested on: TK-10
786-0 = tested on: 786-0

Measured: GI50

O=NN(CCF)C(=O)NC1CCSCC1
inactive: UACC-257 > 100 µM | HCC 2998 > 100 µM | MOLT-4 > 100 µM | NCI-H23 > 100 µM | SK-MEL-2 > 100 µM | K562 > 31.6 µM | OVCAR-3 > 100 µM | SK-MEL-28 > 100 µM | NCI/ADR-RES > 100 µM | SNB-75 > 100 µM | SK-MEL-5 > 100 µM | SF-295 > 100 µM | HL-60 > 100 µM | NCI-H460 > 100 µM | SN12C > 100 µM | SNB-19 > 100 µM | IGROV-1 > 100 µM | SF-268 > 100 µM

COc1nc(O)c(N)c(NC2OC(CO)C(O)C(O)C2O)n1 (configuration not stated)
inactive: UACC-257 > 100 µM | HCC 2998 > 100 µM | MOLT-4 > 100 µM | NCI-H23 > 100 µM | SK-MEL-2 > 100 µM | K562 > 90.8 µM | OVCAR-3 > 100 µM | SK-MEL-28 > 100 µM | NCI/ADR-RES > 100 µM | SNB-75 > 100 µM | SK-MEL-5 > 100 µM | SF-295 > 100 µM | HL-60 > 82.8 µM | NCI-H460 > 100 µM | SN12C > 100 µM | SNB-19 > 100 µM | IGROV-1 > 100 µM | SF-268 > 100 µM

CCCCSCC(NC(=O)/C=C/c1c(C)[nH]c(=O)[nH]c1=O)C(=O)OC (configuration not stated)
inactive: UACC-257 81.7 µM | HCC 2998 29 µM | MOLT-4 50.1 µM | NCI-H23 90.8 µM | SK-MEL-2 25.2 µM | K562 44.1 µM | OVCAR-3 13.2 µM | SK-MEL-28 75 µM | NCI/ADR-RES 358 µM | SNB-75 55.5 µM | SK-MEL-5 64.9 µM | SF-295 101 µM | HL-60 76.6 µM | NCI-H460 57.5 µM | SN12C 37.8 µM | SNB-19 29 µM | IGROV-1 84.5 µM | SF-268 23 µM

CCOC(=O)CC(c1ccccc1)C(C)(C(=O)OCC)C(=O)OCC (configuration not stated)
inactive: UACC-257 > 100 µM | HCC 2998 > 100 µM | MOLT-4 76.9 µM | NCI-H23 > 100 µM | SK-MEL-2 > 100 µM | K562 > 100 µM | SK-MEL-28 > 100 µM | TK-10 > 100 µM | NCI/ADR-RES > 100 µM | SNB-75 87.3 µM | SK-MEL-5 > 100 µM | SF-295 > 100 µM | HL-60 > 100 µM | NCI-H460 > 100 µM | 786-0 > 100 µM | SN12C > 100 µM | SNB-19 > 100 µM | IGROV-1 > 100 µM | SF-268 > 100 µM

NC(=O)CC(/N=C1\C(=O)OC(C(O)CO)\C1=N/C(CC(N)=O)C(=O)O)C(=O)O (configuration not stated)
inactive: UACC-257 > 100 µM | HCC 2998 > 100 µM | MOLT-4 > 100 µM | NCI-H23 > 100 µM | SK-MEL-2 > 100 µM | K562 > 100 µM | SK-MEL-28 > 100 µM | TK-10 > 100 µM | NCI/ADR-RES > 100 µM | SNB-75 > 100 µM | SK-MEL-5 > 100 µM | SF-295 > 100 µM | HL-60 > 100 µM | NCI-H460 > 100 µM | 786-0 > 100 µM | SN12C > 100 µM | SNB-19 > 100 µM | IGROV-1 > 100 µM | SF-268 > 100 µM

CCSc1ncnc2c(C3OC(CO)C(O)C3O)nsc12 (configuration not stated)
inactive: HCC 2998 99.1 µM | MOLT-4 > 100 µM | SK-MEL-2 > 100 µM | K562 > 100 µM | OVCAR-3 > 100 µM | SK-MEL-28 > 100 µM | NCI/ADR-RES > 100 µM | SNB-75 > 100 µM | SK-MEL-5 > 100 µM | SF-295 > 100 µM | HL-60 > 100 µM | SN12C > 100 µM | IGROV-1 > 100 µM | SF-268 > 100 µM

CC1(C)CC23C4COC(=O)C2CCC1C3CC4=O (configuration not stated)
inactive: UACC-257 9.59 µM | HCC 2998 13.9 µM | MOLT-4 5.87 µM | NCI-H23 3.27 µM | SK-MEL-2 14.5 µM | K562 9.84 µM | OVCAR-3 12.5 µM | SK-MEL-28 6.12 µM | NCI/ADR-RES 7.21 µM | SNB-75 19.8 µM | SK-MEL-5 9.86 µM | SF-295 19.8 µM | HL-60 3.06 µM | NCI-H460 11.1 µM | SN12C 15.8 µM | SNB-19 28.3 µM | IGROV-1 21.9 µM | SF-268 10.6 µM

CN(C)c1nc2sc3c(c2c(=O)o1)CCCC3
inactive: UACC-257 73.8 µM | HCC 2998 > 100 µM | MOLT-4 52.2 µM | NCI-H23 46.3 µM | SK-MEL-2 25.3 µM | K562 32.4 µM | SK-MEL-28 71.3 µM | TK-10 > 100 µM | NCI/ADR-RES 43 µM | SNB-75 30.1 µM | SK-MEL-5 23.8 µM | SF-295 31.6 µM | HL-60 27 µM | NCI-H460 44.5 µM | 786-0 45.4 µM | SN12C 36.9 µM | SNB-19 25.6 µM | IGROV-1 72.8 µM
